In patent US8343925B2, “Composition for improving brain function and method for improving brain function” (Calpis Co., Ltd., priority 2009, dated 2013):

Columns and labels:
[1] = test system: scopolamine-induced amnesia; assay: Y-shaped maze test of spontaneous alternation behavior, scopolamine-induced amnesia; assay type: in vivo; conditions: male ddY mice, scopolamine 1 mg/kg s.c. 30 min before test
Protocol: Male mice (n=15) of the ddY strain (approximately 7-week old) were used, and they took food and water ad lib. Test substances used were 9.0 mg/kg weight of Ile-Pro-Pro. The test substances were administered to the mice once orally 60 minutes before the execution of a Y-shaped maze test for evaluation of spontaneous alternation behavior. Further, 30 minutes before the execution of the Y-shaped maze test, 1 mg/kg weight of scopolamine was subcutaneously administered on the backs of the mice in order to induce brain dysfunction (dysmnesia and/or cognitive impairment) in the mice. In the Y-shaped maze test, a Y-shaped maze was used as an experimental device, in which the length of each arm was 40 cm, the height of the wall was 12 cm, the width of the floor was 3 cm, and the width of the upper part was 10 cm, and three arms were connected to each other at an angle of 120 degrees. Each of the mice was placed at the tip of any one of the arms of the Y-shaped maze, and then let go to freely explore in the maze for 8 minutes. The sequence of the arms each of the mice entered was recorded. The number of entries by each of the mice for each of the arms during the measurement time was counted to be the total number of entries. […] The percentage of spontaneous alternation behavior was calculated by dividing the number of spontaneous alternation behavior by a number obtained by subtracting 2 from the total number of entries, and multiplying a resultant number by 100. […] The measured values were expressed in the form of mean±standard error for each group. A significant difference between the control group and the scopolamine control group was calculated using Student's t-test.
Male mice (n=15) of the ddY strain (approximately 7-week old) were used, and they took food and water ad lib. […] The arms each of the mice entered were sequentially recorded. The number of entries by each of the mice for each of the arms during the measurement time was counted to be the total number of entries. […]

[2] = test system: increase in blood pressure due to cold stress; conditions: oral administration; cited from earlier work
[3] = biological target: angiotensin-converting enzyme (ACE) (Homo sapiens, UniProt P12821); conditions: cited from earlier work
blood pressure = conditions: oral administration; cited from earlier work
[4] = 10 mg/kg weight once orally 60 min before test

Chain of angiotensin-converting enzyme (ACE) (P12821 30-1306, species assumed): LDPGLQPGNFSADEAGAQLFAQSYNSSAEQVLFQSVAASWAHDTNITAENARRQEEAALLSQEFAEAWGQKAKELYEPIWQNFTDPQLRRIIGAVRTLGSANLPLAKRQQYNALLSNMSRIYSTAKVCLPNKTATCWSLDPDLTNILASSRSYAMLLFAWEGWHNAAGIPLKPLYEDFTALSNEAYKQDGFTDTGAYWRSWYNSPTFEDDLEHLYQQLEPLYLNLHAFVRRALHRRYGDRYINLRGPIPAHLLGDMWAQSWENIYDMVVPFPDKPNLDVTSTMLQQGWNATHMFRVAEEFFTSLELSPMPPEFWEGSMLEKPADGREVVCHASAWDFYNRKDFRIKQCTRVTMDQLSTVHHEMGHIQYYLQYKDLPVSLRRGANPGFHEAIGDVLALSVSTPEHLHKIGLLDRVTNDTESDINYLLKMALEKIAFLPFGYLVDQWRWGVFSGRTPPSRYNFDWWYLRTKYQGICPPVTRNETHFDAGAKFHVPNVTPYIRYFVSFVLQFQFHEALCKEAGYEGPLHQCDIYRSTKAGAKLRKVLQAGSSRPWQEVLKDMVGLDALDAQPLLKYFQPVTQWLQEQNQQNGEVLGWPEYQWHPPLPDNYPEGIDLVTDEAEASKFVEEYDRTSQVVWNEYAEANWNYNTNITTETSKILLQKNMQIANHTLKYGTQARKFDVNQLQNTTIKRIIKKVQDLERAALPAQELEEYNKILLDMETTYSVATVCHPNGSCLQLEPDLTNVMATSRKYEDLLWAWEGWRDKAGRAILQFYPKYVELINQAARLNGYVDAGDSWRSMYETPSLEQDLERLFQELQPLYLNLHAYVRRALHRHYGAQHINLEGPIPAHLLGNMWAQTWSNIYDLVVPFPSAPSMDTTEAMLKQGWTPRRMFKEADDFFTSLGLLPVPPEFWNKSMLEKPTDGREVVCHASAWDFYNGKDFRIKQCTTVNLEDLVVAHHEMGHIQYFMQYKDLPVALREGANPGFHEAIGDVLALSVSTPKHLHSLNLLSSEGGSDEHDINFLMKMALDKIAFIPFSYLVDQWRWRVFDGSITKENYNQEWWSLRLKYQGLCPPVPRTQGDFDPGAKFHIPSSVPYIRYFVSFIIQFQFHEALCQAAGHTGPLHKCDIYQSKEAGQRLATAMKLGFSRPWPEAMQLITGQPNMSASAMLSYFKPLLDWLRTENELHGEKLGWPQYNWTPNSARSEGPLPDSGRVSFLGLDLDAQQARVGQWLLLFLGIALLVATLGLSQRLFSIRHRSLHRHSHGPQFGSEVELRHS

Substance	prophylactic activity against amnesia (percentage of spontaneous alternation behavior) [1, 4]	inhibitory activities on increase in blood pressure due to cold stress or on decrease in markers of immune function [2]	ACE inhibitory activity [3]	hypotensive activity (blood pressure)	prophylactic activity against amnesia (percentage of spontaneous alternation behavior) ([1]; 9.0 mg/kg weight once orally 60 min before test)
Leu-Pro-Pro	had a prophylactic activity against amnesia				
Val-Pro-Pro [Val-Pro-Pro (VPP), reference compound]		exhibit inhibitory activities on increase in blood pressure due to cold stress			
Ile-Pro-Pro		exhibit inhibitory activities on increase in blood pressure due to cold stress	has an ACE inhibitory activity	hypotensive lowering activity	had a prophylactic activity against amnesia
Ser-Pro-Pro	had a prophylactic activity against amnesia				
